In patent US20180311237A1, “COMPOSITIONS AND METHODS FOR PREVENTING AND TREATING MUCOSITIS AND WEIGHT LOSS” (ST IP Holding AG, priority 2007, published 2018):
Read-outs that look alike come from different tables or passages of the source. Marks after values point to notes of the source that are not given here.

Assays:
[1] = format: in vivo
Method: (§1) Ninety-six (96) female nude mice ([…]) were randomly assigned into 8 treatment groups. Each mouse was inoculated with 1×10^6 NCI-H146 (H146) small cell lung cancer cells in a volume of 0.05 mL on their lower left flank with Matrigel. Treatment began once tumors reached a volume of 75-125 mm^3.
(§2) Initiation of drug treatment was designated day 1. Mice in groups 1 and 5 received vehicle by oral gavage once daily on days 1 and 3. […] Mice in groups 5 to 8 received radiation. The radiation was given as 2 doses of 2 Gy/dose on days 2 and 4. This was accomplished by anesthetizing the mice in these groups with ketamine (100 mg/kg) and xylazine (5 mg/kg) and placing them under a lead shield such that the region of the flank with tumor exposed to the radiation. Radiation was delivered using a Philips 160 kV source at a focal distance of approximately 40 cm, and a dose rate of approximately 1.0 Gy/min. Tumours were measured on alternating days throughout the duration of the study. All mice were sacrificed on day 21 and remaining tumours were excised, measured, weighed, photographed and fixed in formalin for later analysis.
All animals were weighed every day and their survival recorded, in order to assess possible differences in animal weight among treatment groups as an indication of possible toxicity resulting from the treatments.

[2] = system: lipid peroxidation (TBARS)
Method: Thirty minutes after the last administration, the animals were exposed to 8 Gy gamma radiation. Survival of the animals was recorded for 30 days after irradiation. The reduced glutathione (GSH) and lipid peroxidation (LPO) levels in liver and blood were estimated after 30 minutes of radiation exposure.
The absorbance was read at 532 nm.

[3] = system: bone marrow cells
[4] = system: bone marrow cells; remark: listed apart in the source
Method: Cytogenetic damage in the bone marrow cells was studied by chromosomal aberration analysis at the end of the experiments. All animals were injected intra-peritoneally (i.p.) with 0.025% colchicine and sacrificed 2 hours later by cervical dislocation. Both femurs were dissected out. Metaphase plates were prepared by the air drying method. Bone marrow from the femur was aspirated, washed in saline, treated hypotonically (0.6% sodium citrate), fixed in 3:1 methanol:acetic acid, dried and stained with 4% Giemsa (Sigma, USA). Chromosomal aberrations were scored under a light microscope. A total of 400 metaphase plates were scored per animal. Different types of aberration-like chromatid breaks, chromosome breaks, fragments, rings, exchanges and dicentrics were scored. When breaks involved both chromatids, it was termed a “chromosome type” aberration, while “chromatid type” aberrations involved only one chromatid. If the deleted portion had no apparent relation to a specific chromosome, it was called a fragment.

[5] = remark: listed apart in the source
Method: The general condition and body weights of the mice in all groups were observed daily. The percent change in body weight in each group of mice was recorded every day by dividing the average body weight of those mice on the first day of treatment.

[6] = system: mice exposed to 10 Gy gamma radiation; details: for day of first death post-irradiation: 1 h before 10 Gy; for increase in survival compared with the CMC and irradiation group / reduction in animal survival compared with the 100 mg/kg group: thirty-day survival
Method: Animals of this group received 0.5% carboxymethyl cellulose (CMC) orally before exposure to 10 Gy gamma irradiation.
A batch of ten animals was irradiated each time at a dose rate of 1.33 Gy/min.
After irradiation, the animals were monitored daily for 30 days for the development of symptoms of radiation sickness and mortality.
Animals of this group received 0.5% carboxymethyl cellulose (CMC) orally before exposure to 10 Gy of gamma irradiation.
Animals of this group were treated with 1, 5, 10, 25, 50, 100, 150, 200 or 250 mg/kg body weight of DAPR orally once before exposure to 10 Gy of gamma radiation.
One hour after the administration of CMC or DAPR, the immobilized animals, achieved by inserting cotton plugs in the restrainer, were whole-body exposed to ^60Co gamma radiation (Theratron, Atomic Energy Agency, Canada) in a specially designed well-ventilated acrylic box. A batch of ten animals was irradiated each time at a dose rate of 1.33 Gy/min.
Initially 1, 5 and 10 mg/kg DAPR were also evaluated. […] The radioprotective efficacy of DAPR was evaluated by treating mice with 0, 25, 50, 100, 150, 200 and 250 mg/kg body weight DAPR before whole-body exposure to 10 Gy gamma radiation.

[7] = system: NCI-H146 (H146) small cell lung cancer cells
Method: as §1, §2
H146 human lung cancer cells were obtained from ATCC. These cells were grown in DMEM supplemented with 10% Fetal Calf Serum (FCS), penicillin and streptomycin, and 2 mM L-Glutamine. Cells were sub-cultured by removing the medium, rinsing twice with sterile calcium- and magnesium-free phosphate buffered saline (PBS) and adding 1 to 2 ml of 0.25% trypsin, 0.03% EDTA solution. The flask was allowed to sit at 37° C. until the cells detached. Cells were then sub-cultured at a ratio of 1:3.
Tumours were measured once every two days with micro-calipers, and tumour volume was calculated as (length×width)[…]. The tumour growth index (TGI) was calculated using the formula 100−([…]), where Vc is the mean volume of the tumours in the control group and Vt is the mean volume of the tumours in the test group.
Tumour volumes were calculated from the length and width measurements taken on alternating days by calculating the mean radius (r), which was the sum of length and width divided by 4, and using the formula 4/3 πr^3 to calculate the volume.

[8] = radiation plus 50 mg/kg on days 1 to 20
[9] = radiation plus 100 mg/kg on days 1 and 3
[10] = 100 mg/kg body weight/day, 2 days, + gamma radiation
[11] = 50 mg/kg on days 1 and 3, no radiation
[12] = 50 mg/kg on days 1 to 20, no radiation
[13] = 100 mg/kg on days 1 and 3, no radiation
[14] = radiation plus 50 mg/kg on days 1 and 3

Q: Which “average loss of starting weight by Day 21” value ([1]; 50 mg/kg po on days 1 and 3, no radiation) does the source give for Cc1c(-c2cnccn2)ssc1=S here?
A: 0.1%

Q: What about the “average gain of starting weight by Day 21” value (“average gain” below) ([1]; 50 mg/kg po on days 1 to 20, no radiation) of the same compound?
A: 0.8%

Q: What about the “average gain” value ([1]; 100 mg/kg po on days 1 and 3, no radiation) of the same compound?
A: 4.8%

Q: What about the “toxicity based on observations of survival and weight change” value ([1]; 50 or 100 mg/kg po, with or without radiation, 21 days) of the same compound?
A: no evidence of toxicity

Q: What about the “average gain” value ([1]; radiation (2 Gy days 2 and 4) plus 50 mg/kg on days 1 and 3) of the same compound?
A: 0.8%

Q: What about the “average gain” value [1, 8] of the same compound?
A: 1.4%

Q: What about the “average gain” value [1, 9] of the same compound?
A: 5.1%

Q: And the “Blood LPO” value ([2]; drug + 6 Gy)?
A: 2.44 ± 0.16^c nmol/ml

Q: What about the “Liver LPO” value ([2]; drug + 6 Gy) of the same compound?
A: 3.22 ± 0.12^c nmol/mg

Q: And the “Blood LPO” value ([2]; drug + 8 Gy)?
A: 3.28 ± 0.16^a nmol/ml

Q: What about the “Liver LPO” value ([2]; drug + 8 Gy) of the same compound?
A: 3.80 ± 0.14^c nmol/mg

Q: What about the “Blood LPO” value ([2]; drug + 10 Gy) of the same compound?
A: 3.68 ± 0.18^b nmol/ml

Q: What about the “Liver LPO” value ([2]; drug + 10 Gy) of the same compound?
A: 5.22 ± 0.27^c nmol/mg

Q: And the “Blood LPO” value ([2]; drug alone, no irradiation)?
A: 1.10 ± 0.10 nmol/mL

Q: And the “Liver LPO” value ([2]; drug alone, no irradiation)?
A: 2.42 ± 0.14 nmol/mg

Q: What about the “Number of Mn/1000 Cells” value ([3]; drug + 8.0 Gy gamma rays) of the same compound?
A: 6.58 ± 0.64^c

Q: What about the “Number of Mn/1000 Cells” value ([3]; drug alone) of the same compound?
A: 0.28 ± 0.01

Q: And the “dose up to which no signs of toxicity and no mortality were observed” value (fasted 18 hours, observed 14 days post-drug treatment)?
A: up to 2 g/kg

Q: And the “amount administrable without significant toxicity” value (formulated with carboxymethyl cellulose (CMC))?
A: up to 2000 mg/kg

Q: And the Chromatid breaks ([4]; drug (100 mg/kg body weight/day) + 8 Gy)?
A: 3.18 ± 0.44^a %

Q: And the Aberrant cells ([4]; drug + 8 Gy)?
A: 17.20 ± 1.20^c %

Q: And the “Aberrations per damaged cell” value ([4]; drug + 8 Gy)?
A: 2.21 ± 0.20^a

Q: And the Centric rings ([4]; drug + 8 Gy)?
A: 1.26 ± 0.28%

Q: What about the Chromosome breaks ([4]; drug + 8 Gy) of the same compound?
A: 1.04 ± 0.26^b %

Q: What about the Dicentrics ([4]; drug + 8 Gy) of the same compound?
A: 1.10 ± 0.14%

Q: What about the Exchanges ([4]; drug + 8 Gy) of the same compound?
A: 1.18 ± 0.32^b %

Q: And the Fragments ([4]; drug + 8 Gy)?
A: 28.8 ± 3.20^c %

Q: What about the Polyploidy ([4]; drug + 8 Gy) of the same compound?
A: 0.36 ± 0.01^c %

Q: And the Pulverized cells ([4]; drug + 8 Gy)?
A: 1.28 ± 0.02^c %

Q: And the Total aberrations ([4]; drug + 8 Gy)?
A: 38.10 ± 3.66^c %

Q: And the Aberrant cells ([4]; drug alone)?
A: 0.61 ± 0.04%

Q: What about the “Aberrations per damaged cell” value ([4]; drug alone) of the same compound?
A: 1.21 ± 0.03^c

Q: What about the Centric rings ([4]; drug alone) of the same compound?
A: 0.00 ± 0.00%

Q: And the Chromatid breaks ([4]; drug alone)?
A: 0.14 ± 0.01%

Q: And the Chromosome breaks ([4]; drug alone)?
A: 0.00 ± 0.00%

Q: What about the Dicentrics ([4]; drug alone) of the same compound?
A: 0.00 ± 0.00%

Q: And the Exchanges ([4]; drug alone)?
A: 0.00 ± 0.00%

Q: And the Fragments ([4]; drug alone)?
A: 0.85 ± 0.04^b %

Q: And the Polyploidy ([4]; drug alone)?
A: 0.18 ± 0.02%

Q: And the Pulverized cells ([4]; drug alone)?
A: 0.00 ± 0.00%

Q: And the Total aberrations ([4]; drug alone)?
A: 0.74 ± 0.02%

Q: And the “Maximum body weight loss in experimental groups” value [5, 10]?
A: 22.05%

Q: And the “minimum body weight loss in experimental groups” value [5, 10]?
A: 1.7%

Q: And the “increase in body weight from initial body weight at day-30 post-irradiation” value (from here on “increase in body weight”) ([5]; drug + 6 Gy)?
A: 17%

Q: What about the “increase in body weight” value ([5]; drug + 8 Gy) of the same compound?
A: 9.5%

Q: What about the “increase in body weight” value ([5]; drug + 10 Gy) of the same compound?
A: 13.7%

Q: And the “day of first death post-irradiation” value ([6]; 5 mg/kg orally once)?
A: 7 days

Q: What about the “increase in survival compared with the CMC and irradiation group” value ([6]; 10 mg/kg, 10 Gy) of the same compound?
A: 20%

Q: And the “increase in survival compared with the CMC and irradiation group” value ([6]; 25 mg/kg, 10 Gy)?
A: 30%

Q: What about the “increase in survival compared with the CMC and irradiation group” value ([6]; 50 mg/kg, 10 Gy) of the same compound?
A: 40%

Q: What about the thirty-day survival ([6]; 100 mg/kg orally before 10 Gy) of the same compound?
A: 60%

Q: And the “day of first death post-irradiation” value ([6]; 100 mg/kg orally once)?
A: 11 days

Q: What about the “increase in survival compared with the non-treated irradiated control” value ([6]; 100 mg/kg, 10 Gy) of the same compound?
A: 60%

Q: What about the “reduction in animal survival compared with the 100 mg/kg group” value (“reduction in animal survival” below) ([6]; 150 mg, 10 Gy) of the same compound?
A: 20%

Q: What about the “mortality within 10 days of irradiation” value ([6]; 150 mg/kg orally before 10 Gy) of the same compound?
A: did not cause any mortality

Q: And the “reduction in animal survival” value ([6]; 200 mg, 10 Gy)?
A: 20%

Q: And the “mortality within 10 days of irradiation” value ([6]; 200 mg/kg orally before 10 Gy)?
A: did not cause any mortality

Q: And the “reduction in animal survival” value ([6]; 250 mg/kg, 10 Gy)?
A: 30%

Q: What about the optimum protective dose ([6]; oral, before 10 Gy) of the same compound?
A: 100 mg/kg

Q: What about the “mean tumour volume on Day 1” value [7, 11] of the same compound?
A: 72 mm^3

Q: And the “mean tumour volume on Day 21” value [7, 11]?
A: 940 mm^3

Q: And the “mean tumour volume on Day 1” value [7, 12]?
A: 76 mm^3

Q: What about the “mean tumour volume on Day 21” value [7, 12] of the same compound?
A: 1130 mm^3

Q: What about the “mean tumour volume on Day 1” value [7, 13] of the same compound?
A: 110 mm^3

Q: And the “mean tumour volume on Day 21” value [7, 13]?
A: 1341 mm^3

Q: What about the “effect on tumour volume when given in conjunction with radiation therapy” value ([7]; doses and dose schedules of this study) of the same compound?
A: does not have an additive effect

Q: What about the “mean tumour volume on Day 1” value [7, 14] of the same compound?
A: 93 mm^3

Q: What about the “mean tumour volume on Day 21” value [7, 14] of the same compound?
A: 971 mm^3

Q: And the “mean tumour volume on Day 1” value [7, 8]?
A: 140 mm^3

Q: And the “mean tumour volume on Day 21” value [7, 8]?
A: 1380 mm^3

Q: What about the “mean tumour volume on Day 1” value [7, 9] of the same compound?
A: 63 mm^3

Q: And the “mean tumour volume on Day 21” value [7, 9]?
A: 769 mm^3

Q: And the “tumour volume relative to vehicle controls by day 21” value ([7]; single agent, 50 mg/kg once daily on days 1 and 3 (P=0.030))?
A: significant reduction in tumour volume
